Experimental data from ChEMBL document CHEMBL3132769, “Fragment growing to retain or alter the selectivity of anchored kinase hinge-binding fragments” (Medchemcomm, 2014).

Key:
[1] = target: Protein kinase C beta type (Homo sapiens) (UniProt P05771); experiment: Inhibition of human truncated PKC beta1 expressed in baculovirus assessed as substrate phosphorylation using fluorescence-labelled peptides as substrate at 0.2 uM after 90 mins by microfluidic peptide phosphorylation assay
[2] = target: Calcium/calmodulin-dependent protein kinase type II subunit delta (Homo sapiens) (UniProt Q13557); experiment: Inhibition of human full length CAMK2D expressed in baculovirus assessed as substrate phosphorylation using fluorescence-labelled peptides as substrate at 0.2 uM after 90 mins by microfluidic peptide phosphorylation assay
[3] = target: T1, Serine/threonine-protein kinase D2 (Homo sapiens) (UniProt Q9BZL6); experiment: Inhibition of human full length PKD2 expressed in baculovirus assessed as substrate phosphorylation using fluorescence-labelled peptides as substrate at 9 uM after 90 mins by microfluidic peptide phosphorylation assay
T1 sequence (whole entry): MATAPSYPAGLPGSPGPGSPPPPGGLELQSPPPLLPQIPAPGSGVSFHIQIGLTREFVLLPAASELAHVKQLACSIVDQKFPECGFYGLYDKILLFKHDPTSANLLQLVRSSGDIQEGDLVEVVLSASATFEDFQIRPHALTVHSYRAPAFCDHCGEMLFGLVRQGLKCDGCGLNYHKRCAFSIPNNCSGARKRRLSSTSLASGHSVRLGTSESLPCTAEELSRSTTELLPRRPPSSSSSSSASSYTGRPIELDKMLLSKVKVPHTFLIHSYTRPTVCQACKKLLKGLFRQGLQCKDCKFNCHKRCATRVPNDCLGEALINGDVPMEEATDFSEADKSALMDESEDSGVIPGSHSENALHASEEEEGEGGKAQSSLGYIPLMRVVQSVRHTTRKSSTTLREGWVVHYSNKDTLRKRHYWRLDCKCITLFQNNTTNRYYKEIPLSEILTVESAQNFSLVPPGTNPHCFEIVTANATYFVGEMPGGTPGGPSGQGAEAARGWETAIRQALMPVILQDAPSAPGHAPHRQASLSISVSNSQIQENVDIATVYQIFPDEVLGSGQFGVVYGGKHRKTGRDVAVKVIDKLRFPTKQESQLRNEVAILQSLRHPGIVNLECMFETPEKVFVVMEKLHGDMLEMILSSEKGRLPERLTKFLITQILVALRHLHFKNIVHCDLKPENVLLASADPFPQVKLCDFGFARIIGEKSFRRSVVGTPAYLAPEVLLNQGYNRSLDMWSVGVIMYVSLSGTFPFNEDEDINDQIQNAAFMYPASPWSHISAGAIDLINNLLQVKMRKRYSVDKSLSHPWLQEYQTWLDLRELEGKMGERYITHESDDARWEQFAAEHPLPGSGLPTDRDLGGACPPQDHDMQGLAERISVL

[4] = target: Calcium/calmodulin-dependent protein kinase type II subunit gamma (Homo sapiens) (UniProt Q13555); experiment: Inhibition of human CAMK2 gamma catalytic domain expressed in baculovirus assessed as substrate phosphorylation using fluorescence-labelled peptides as substrate at 9 uM after 90 mins by microfluidic peptide phosphorylation assay
[5] = species on record: Homo sapiens; experiment: Inhibition of human P70S6K catalytic domain expressed in baculovirus assessed as substrate phosphorylation using fluorescence-labelled peptides as substrate at 9 uM after 90 mins by microfluidic peptide phosphorylation assay
[6] = target: Ribosomal protein S6 kinase alpha-4 (Homo sapiens) (UniProt O75676); experiment: Inhibition of human full length MSK2 expressed in baculovirus assessed as substrate phosphorylation using fluorescence-labelled peptides as substrate at 9 uM after 90 mins by microfluidic peptide phosphorylation assay
[7] = target: Platelet-derived growth factor receptor alpha (Homo sapiens) (UniProt P16234); experiment: Inhibition of human PDGFR alpha catalytic domain expressed in baculovirus assessed as substrate phosphorylation using fluorescence-labelled peptides as substrate at 9 uM after 90 mins by microfluidic peptide phosphorylation assay
[8] = target: T2, Aurora kinase C (Homo sapiens) (UniProt Q9UQB9); experiment: Inhibition of human full length AurC expressed in baculovirus assessed as substrate phosphorylation using fluorescence-labelled peptides as substrate at 2 uM after 90 mins by microfluidic peptide phosphorylation assay
T2 sequence (whole entry): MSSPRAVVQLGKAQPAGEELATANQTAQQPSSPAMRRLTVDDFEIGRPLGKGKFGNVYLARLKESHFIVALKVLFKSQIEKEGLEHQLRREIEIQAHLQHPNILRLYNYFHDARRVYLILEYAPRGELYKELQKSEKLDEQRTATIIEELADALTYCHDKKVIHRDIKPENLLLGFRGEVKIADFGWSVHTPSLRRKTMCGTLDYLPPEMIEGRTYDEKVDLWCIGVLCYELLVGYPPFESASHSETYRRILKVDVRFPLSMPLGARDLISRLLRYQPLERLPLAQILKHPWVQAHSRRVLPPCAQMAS

[9] = target: T3, cGMP-dependent protein kinase 1 (Homo sapiens) (UniProt Q13976); experiment: Inhibition of human full length PKG-1a expressed in baculovirus assessed as substrate phosphorylation using fluorescence-labelled peptides as substrate at 2 uM after 90 mins by microfluidic peptide phosphorylation assay
T3 sequence (whole entry): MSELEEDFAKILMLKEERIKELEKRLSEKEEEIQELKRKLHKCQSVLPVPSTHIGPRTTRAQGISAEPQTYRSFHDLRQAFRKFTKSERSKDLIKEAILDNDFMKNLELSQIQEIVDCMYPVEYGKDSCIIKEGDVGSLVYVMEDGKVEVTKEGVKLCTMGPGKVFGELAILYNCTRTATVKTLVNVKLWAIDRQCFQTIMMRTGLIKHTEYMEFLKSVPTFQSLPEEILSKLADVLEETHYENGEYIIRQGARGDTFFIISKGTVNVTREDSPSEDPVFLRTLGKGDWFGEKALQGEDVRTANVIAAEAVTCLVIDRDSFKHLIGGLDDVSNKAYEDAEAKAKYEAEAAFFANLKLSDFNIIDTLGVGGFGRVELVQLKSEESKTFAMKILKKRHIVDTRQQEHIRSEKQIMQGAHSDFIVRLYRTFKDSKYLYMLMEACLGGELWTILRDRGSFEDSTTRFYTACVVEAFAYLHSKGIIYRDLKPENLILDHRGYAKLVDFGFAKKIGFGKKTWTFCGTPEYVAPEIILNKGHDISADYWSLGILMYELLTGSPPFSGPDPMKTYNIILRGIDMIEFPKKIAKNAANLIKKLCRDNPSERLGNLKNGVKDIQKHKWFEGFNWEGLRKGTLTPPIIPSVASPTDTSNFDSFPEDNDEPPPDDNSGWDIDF

[10] = target: Tyrosine-protein kinase HCK (Homo sapiens) (UniProt P08631); experiment: Inhibition of human HCK catalytic domain expressed in baculovirus assessed as substrate phosphorylation using fluorescence-labelled peptides as substrate at […] after 90 mins by microfluidic peptide phosphorylation assay
[11] = target: Insulin-like growth factor 1 receptor (Homo sapiens) (UniProt P08069); experiment: Inhibition of human IGF1R catalytic domain expressed in baculovirus assessed as substrate phosphorylation using fluorescence-labelled peptides as substrate at 0.06 uM after 90 mins by microfluidic peptide phosphorylation assay
[12] = target: Vascular endothelial growth factor receptor 2 (Homo sapiens) (UniProt P35968); experiment: Inhibition of human KDR cytoplasmic domain expressed in baculovirus assessed as substrate phosphorylation using fluorescence-labelled peptides as substrate at 8 uM after 90 mins by microfluidic peptide phosphorylation assay
Vascular endothelial growth factor receptor 2 (Homo sapiens), sequence (P35968 whole entry, the tested form may be a part): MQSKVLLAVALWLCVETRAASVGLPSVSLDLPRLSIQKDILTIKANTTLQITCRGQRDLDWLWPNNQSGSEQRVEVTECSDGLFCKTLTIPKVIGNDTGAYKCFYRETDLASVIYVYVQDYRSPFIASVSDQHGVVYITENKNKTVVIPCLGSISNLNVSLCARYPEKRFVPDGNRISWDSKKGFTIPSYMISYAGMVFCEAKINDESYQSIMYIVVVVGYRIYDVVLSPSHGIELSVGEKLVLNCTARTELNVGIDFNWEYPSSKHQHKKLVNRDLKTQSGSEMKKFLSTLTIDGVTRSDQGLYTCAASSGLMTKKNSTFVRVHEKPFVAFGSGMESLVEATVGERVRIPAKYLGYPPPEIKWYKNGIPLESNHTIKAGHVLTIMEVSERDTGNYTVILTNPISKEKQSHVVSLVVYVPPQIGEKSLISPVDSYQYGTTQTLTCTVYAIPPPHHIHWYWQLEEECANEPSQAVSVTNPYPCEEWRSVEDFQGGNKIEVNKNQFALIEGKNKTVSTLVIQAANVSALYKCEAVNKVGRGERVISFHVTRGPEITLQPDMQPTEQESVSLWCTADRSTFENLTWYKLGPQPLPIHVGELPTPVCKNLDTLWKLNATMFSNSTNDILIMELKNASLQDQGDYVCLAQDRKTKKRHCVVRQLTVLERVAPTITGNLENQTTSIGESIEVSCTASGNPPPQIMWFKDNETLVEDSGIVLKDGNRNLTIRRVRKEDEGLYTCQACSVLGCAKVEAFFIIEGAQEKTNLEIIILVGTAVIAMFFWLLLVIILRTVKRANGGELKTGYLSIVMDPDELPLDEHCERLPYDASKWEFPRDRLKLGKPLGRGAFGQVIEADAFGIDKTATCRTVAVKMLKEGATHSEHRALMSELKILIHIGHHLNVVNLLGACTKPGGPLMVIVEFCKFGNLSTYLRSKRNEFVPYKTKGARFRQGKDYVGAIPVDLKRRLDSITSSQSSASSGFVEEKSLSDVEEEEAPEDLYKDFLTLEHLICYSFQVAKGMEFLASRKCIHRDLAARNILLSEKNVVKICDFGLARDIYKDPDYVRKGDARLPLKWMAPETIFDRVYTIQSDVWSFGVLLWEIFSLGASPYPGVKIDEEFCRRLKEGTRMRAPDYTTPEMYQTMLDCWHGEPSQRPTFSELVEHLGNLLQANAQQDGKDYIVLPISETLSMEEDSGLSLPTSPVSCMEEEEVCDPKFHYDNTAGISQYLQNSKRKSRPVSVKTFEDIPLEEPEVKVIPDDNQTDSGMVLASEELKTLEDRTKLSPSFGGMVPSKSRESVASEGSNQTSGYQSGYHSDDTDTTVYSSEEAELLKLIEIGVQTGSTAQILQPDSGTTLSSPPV

Ribosomal protein S6 kinase alpha-4 (Homo sapiens), sequence (O75676 whole entry, looked up, the tested form may be a part): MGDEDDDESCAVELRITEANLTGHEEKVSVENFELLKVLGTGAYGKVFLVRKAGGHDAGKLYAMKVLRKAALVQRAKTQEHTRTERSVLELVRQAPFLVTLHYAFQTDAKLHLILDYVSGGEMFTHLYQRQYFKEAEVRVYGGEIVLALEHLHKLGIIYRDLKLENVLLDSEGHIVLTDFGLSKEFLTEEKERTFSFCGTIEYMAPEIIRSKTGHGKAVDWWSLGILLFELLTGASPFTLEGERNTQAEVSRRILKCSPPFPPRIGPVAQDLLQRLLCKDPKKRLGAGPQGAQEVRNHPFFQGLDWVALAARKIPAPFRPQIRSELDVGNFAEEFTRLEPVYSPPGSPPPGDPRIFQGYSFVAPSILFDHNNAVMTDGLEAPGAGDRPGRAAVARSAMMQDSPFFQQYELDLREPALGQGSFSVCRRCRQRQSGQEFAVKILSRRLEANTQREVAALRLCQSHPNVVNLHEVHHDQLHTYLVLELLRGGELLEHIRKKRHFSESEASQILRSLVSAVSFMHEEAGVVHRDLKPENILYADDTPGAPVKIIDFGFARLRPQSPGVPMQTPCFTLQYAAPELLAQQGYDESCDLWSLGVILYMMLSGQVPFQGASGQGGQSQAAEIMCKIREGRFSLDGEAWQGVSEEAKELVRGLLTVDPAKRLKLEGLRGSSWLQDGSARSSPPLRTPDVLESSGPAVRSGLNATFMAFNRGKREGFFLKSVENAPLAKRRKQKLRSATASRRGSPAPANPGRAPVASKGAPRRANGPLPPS
Calcium/calmodulin-dependent protein kinase type II subunit gamma (Homo sapiens), sequence (Q13555 whole entry, the tested form may be a part): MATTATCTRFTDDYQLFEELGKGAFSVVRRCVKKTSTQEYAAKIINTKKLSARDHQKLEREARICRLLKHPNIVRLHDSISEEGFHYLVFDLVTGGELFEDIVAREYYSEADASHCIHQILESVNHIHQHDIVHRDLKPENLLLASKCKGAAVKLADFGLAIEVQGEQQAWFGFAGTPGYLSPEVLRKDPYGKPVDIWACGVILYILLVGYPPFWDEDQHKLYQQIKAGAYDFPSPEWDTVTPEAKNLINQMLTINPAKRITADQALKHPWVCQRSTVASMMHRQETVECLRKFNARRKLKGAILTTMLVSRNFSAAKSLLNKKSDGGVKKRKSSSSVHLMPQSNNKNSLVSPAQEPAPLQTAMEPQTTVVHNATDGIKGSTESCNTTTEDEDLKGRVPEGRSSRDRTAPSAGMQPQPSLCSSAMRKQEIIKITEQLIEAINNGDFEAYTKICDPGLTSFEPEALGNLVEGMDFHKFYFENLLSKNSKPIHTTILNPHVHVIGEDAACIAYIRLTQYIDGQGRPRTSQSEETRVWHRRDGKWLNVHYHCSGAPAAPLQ
Platelet-derived growth factor receptor alpha (Homo sapiens), sequence (P16234 whole entry, the tested form may be a part): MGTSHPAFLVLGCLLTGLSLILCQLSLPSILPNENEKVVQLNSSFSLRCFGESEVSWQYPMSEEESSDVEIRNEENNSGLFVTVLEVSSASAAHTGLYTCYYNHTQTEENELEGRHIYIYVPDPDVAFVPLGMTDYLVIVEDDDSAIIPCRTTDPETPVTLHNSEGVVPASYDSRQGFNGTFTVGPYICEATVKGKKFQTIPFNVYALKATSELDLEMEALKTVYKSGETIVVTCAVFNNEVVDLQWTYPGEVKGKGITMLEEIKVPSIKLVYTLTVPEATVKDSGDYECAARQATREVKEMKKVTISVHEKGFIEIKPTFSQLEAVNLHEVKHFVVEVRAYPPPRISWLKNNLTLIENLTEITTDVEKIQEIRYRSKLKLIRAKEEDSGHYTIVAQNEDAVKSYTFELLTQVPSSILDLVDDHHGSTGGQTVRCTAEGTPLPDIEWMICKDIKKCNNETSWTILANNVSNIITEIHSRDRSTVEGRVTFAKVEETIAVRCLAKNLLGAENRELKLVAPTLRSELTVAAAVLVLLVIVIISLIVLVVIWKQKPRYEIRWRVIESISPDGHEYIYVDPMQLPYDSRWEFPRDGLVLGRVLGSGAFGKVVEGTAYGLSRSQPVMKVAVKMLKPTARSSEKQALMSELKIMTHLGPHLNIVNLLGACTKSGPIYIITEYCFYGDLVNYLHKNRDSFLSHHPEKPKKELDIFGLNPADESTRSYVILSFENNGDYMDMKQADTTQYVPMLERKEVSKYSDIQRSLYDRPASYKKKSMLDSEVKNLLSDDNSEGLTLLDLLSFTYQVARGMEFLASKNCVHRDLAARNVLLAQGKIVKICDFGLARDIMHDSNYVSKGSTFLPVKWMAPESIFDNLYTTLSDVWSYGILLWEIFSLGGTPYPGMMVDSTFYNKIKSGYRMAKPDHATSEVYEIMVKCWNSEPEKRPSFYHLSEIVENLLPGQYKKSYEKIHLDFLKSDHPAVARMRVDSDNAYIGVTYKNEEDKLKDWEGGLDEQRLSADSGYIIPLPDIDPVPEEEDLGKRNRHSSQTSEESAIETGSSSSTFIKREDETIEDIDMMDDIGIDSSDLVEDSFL
Calcium/calmodulin-dependent protein kinase type II subunit delta (Homo sapiens), sequence (Q13557 whole entry): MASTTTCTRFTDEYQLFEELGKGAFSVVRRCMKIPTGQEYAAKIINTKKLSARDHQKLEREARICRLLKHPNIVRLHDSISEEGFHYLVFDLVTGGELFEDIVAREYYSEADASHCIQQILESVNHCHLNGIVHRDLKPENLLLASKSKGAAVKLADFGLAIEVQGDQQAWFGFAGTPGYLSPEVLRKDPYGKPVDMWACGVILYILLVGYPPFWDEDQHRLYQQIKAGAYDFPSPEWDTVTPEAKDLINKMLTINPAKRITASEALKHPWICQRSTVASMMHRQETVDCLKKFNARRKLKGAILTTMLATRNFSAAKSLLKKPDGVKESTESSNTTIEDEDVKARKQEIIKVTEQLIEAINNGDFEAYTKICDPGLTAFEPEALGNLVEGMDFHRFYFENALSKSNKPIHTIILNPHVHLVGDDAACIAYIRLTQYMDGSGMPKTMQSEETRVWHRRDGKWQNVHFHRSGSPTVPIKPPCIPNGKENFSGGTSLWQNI
Tyrosine-protein kinase HCK (Homo sapiens), sequence (P08631 2-526 limits assumed): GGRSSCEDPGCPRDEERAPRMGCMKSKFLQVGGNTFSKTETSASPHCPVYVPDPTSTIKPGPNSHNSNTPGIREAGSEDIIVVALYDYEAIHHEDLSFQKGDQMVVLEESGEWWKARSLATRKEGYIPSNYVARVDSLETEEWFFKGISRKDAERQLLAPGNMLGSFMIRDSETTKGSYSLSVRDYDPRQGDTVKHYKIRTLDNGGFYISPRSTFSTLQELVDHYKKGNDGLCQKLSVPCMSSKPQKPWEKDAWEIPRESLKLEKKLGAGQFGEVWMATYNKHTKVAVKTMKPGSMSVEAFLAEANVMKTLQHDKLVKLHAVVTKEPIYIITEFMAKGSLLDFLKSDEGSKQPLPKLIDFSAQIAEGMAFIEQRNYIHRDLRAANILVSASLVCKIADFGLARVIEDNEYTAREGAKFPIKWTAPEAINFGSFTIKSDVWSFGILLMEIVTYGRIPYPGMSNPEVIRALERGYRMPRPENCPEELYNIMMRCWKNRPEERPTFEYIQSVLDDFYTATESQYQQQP

Clc1ccc(C2(c3ccc(-c4ncnc5[nH]cnc45)cc3)CCNCC2)cc1
inhibition [1]: 53%
inhibition [2]: 16%

NCC1CN(c2ncnc3[nH]c4cnccc4c23)CCO1 (configuration not stated)
inhibition [3]: 68%
inhibition [4]: 24%
inhibition [5]: 14.5%
inhibition [6]: 52%
inhibition [7]: 23%

NC1CCN(c2ncnc3[nH]ccc23)CC1
inhibition [8]: 13.5%
inhibition [9]: 10%

COC(=O)c1cnc(Nc2cnc(C#N)cn2)cc1NCC1CCNCC1
inhibition [10]: 11%

NC1(Cc2ccc(Cl)cc2)CCN(c2ncnc3[nH]ccc23)CC1
inhibition [11]: 0%

NCC1CCN(c2ncnc3[nH]ccc23)CC1
inhibition [12]: 50%
